Test results: ChEMBL document CHEMBL6120946, “From Hit to Lead: Discovery of First-In-Class Furanone Glycoside D228 Derived from Chimonanthus salicifolius for the Treatment of Inflammatory Bowel Disease” (J Med Chem, 2024)
Calls of active or inactive are those of the source. No cut-off for these calls is given here.

Legend:
Mus musculus [1] = experiment: Antiinflammatory activity in DSS-induced male C57BL/6 mouse model assessed as increase in IL-10 level in colon at 50 to 100 microM/Kg; assay type: functional, organism-based; conditions: dose 50-100 µM/Kg
[2] = Toxicity in male Kunming mouse assessed as effect on GGT level in serum at 100 to 500 mg/kg/day, po measured after 5 weeks; assay type: organism-based; conditions: in vivo, 840 h, dose 100-500 mg/kg/day
[3] = Acute toxicity in male Kunming mouse assessed as effect on liver 5 g/Kg, po measured after 5 weeks; assay type: organism-based; conditions: in vivo, 5000 mg/kg, 840 h
Mus musculus [4] = experiment: Antiinflammatory activity in DSS-induced male C57BL/6 mouse model assessed as inhibition of TNF-alpha level in colon at 50 to 100 microM/Kg; assay type: functional, organism-based; conditions: dose 50-100 µM/Kg
Mus musculus [5] = experiment: Antiinflammatory activity in DSS-induced male C57BL/6 mouse model of inflammatory bowel disease assessed as downregulation of TRAF6 expression at 50 to 100 microM/Kg by Western blot analysis; assay type: functional, organism-based; conditions: dose 50-100 µM/Kg
[6] = Acute toxicity in female Kunming mouse assessed as effect on heart 5 g/Kg, po measured after 5 weeks; assay type: organism-based; conditions: in vivo, 5000 mg/kg, 840 h
[7] = Toxicity in male Kunming mouse assessed as effect on AST level in serum at 100 to 500 mg/kg/day, po measured after 5 weeks; assay type: organism-based; conditions: in vivo, 840 h, dose 100-500 mg/kg/day
[8] = Toxicity in female Kunming mouse assessed as effect on ALT level in serum at 100 to 500 mg/kg/day, po measured after 5 weeks; assay type: organism-based; conditions: in vivo, 840 h, dose 100-500 mg/kg/day
Mus musculus [9] = experiment: Antiinflammatory activity in DSS-induced male C57BL/6 mouse model assessed as inhibition of IL-6 level in colon at 50 to 100 microM/Kg; assay type: functional, organism-based; conditions: dose 50-100 µM/Kg
[10] = Toxicity in male Kunming mouse assessed as effect on […] level in serum at 100 to 500 mg/kg/day, po measured after 5 weeks; assay type: organism-based; conditions: in vivo, 840 h, dose 100-500 mg/kg/day
[11] = Toxicity in female Kunming mouse assessed as effect on ABL level in serum at 100 to 500 mg/kg/day, po measured after 5 weeks; assay type: organism-based; conditions: in vivo, 840 h, dose 100-500 mg/kg/day
Mus musculus [12] = experiment: Antiinflammatory activity in DSS-induced male C57BL/6 mouse model assessed as inhibition of IL-22 level in colon at 50 to 100 microM/Kg; assay type: functional, organism-based; conditions: dose 50-100 µM/Kg
[13] = Toxicity in male Kunming mouse assessed as effect on liver to body weight ratio at 100 to 500 mg/kg/day, po measured after 5 weeks; assay type: organism-based; conditions: in vivo, 840 h, dose 100-500 mg/kg/day
Mus musculus [14] = experiment: Antiinflammatory activity in DSS-induced male C57BL/6 mouse model of inflammatory bowel disease assessed as amelioration of structural loss of colon at 50 to 100 microM/Kg by H and E staining based analysis; assay type: functional, organism-based; conditions: dose 50-100 µM/Kg
[15] = Toxicity in female Kunming mouse assessed as lethal dose administered as po measured after 5 weeks; assay type: organism-based; conditions: in vivo
[16] = Toxicity in female Kunming mouse assessed as effect on GGT level in serum at 100 to 500 mg/kg/day, po measured after 5 weeks; assay type: organism-based; conditions: in vivo, 840 h, dose 100-500 mg/kg/day
Mus musculus [17] = experiment: Antiinflammatory activity in DSS-induced male C57BL/6 mouse model of inflammatory bowel disease assessed as upregulation of ZO-1 expression in colon at 50 to 100 microM/Kg by immunohistochemical analysis; assay type: functional, organism-based; conditions: dose 50-100 µM/Kg
[18] = Toxicity in male Kunming mouse assessed as effect on kidney to body weight ratio at 100 to 500 mg/kg/day, po measured after 5 weeks; assay type: organism-based; conditions: in vivo, 840 h, dose 100-500 mg/kg/day
[19] = Acute toxicity in female Kunming mouse assessed as effect on body weight loss 5 g/Kg, po measured after 5 weeks; assay type: organism-based; conditions: in vivo, 5000 mg/kg, 840 h
[20] = Acute toxicity in male Kunming mouse assessed as effect on body weight loss 5 g/Kg, po measured after 5 weeks; assay type: organism-based; conditions: in vivo, 5000 mg/kg, 840 h
[21] = Acute toxicity in male Kunming mouse assessed as effect on heart 5 g/Kg, po measured after 5 weeks; assay type: organism-based; conditions: in vivo, 5000 mg/kg, 840 h
[22] = Acute toxicity in female Kunming mouse assessed as effect on liver 5 g/Kg, po measured after 5 weeks; assay type: organism-based; conditions: in vivo, 5000 mg/kg, 840 h
[23] = Toxicity in female Kunming mouse assessed as effect on lung at 100 to 500 mg/kg/day, po measured after 5 weeks by H and E staining based analysis; assay type: organism-based; conditions: in vivo, 840 h, dose 100-500 mg/kg/day
Mus musculus [24] = experiment: Antiinflammatory activity in DSS-induced male C57BL/6 mouse model of inflammatory bowel disease assessed as inhibition of MPO expression at 50 to 100 microM/Kg, po by immunohistochemical analysis; assay type: functional, organism-based; conditions: dose 50-100 µM/Kg
[25] = Toxicity in female Kunming mouse assessed as effect on spleen to body weight ratio at 100 to 500 mg/kg/day, po measured after 5 weeks; assay type: organism-based; conditions: in vivo, 840 h, dose 100-500 mg/kg/day
[26] = Toxicity in male Kunming mouse assessed as effect on Na inorganic salt level in serum at 100 to 500 mg/kg/day, po measured after 5 weeks; assay type: organism-based; conditions: in vivo, 840 h, dose 100-500 mg/kg/day
[27] = Toxicity in female Kunming mouse assessed as effect on CK level in serum at 100 to 500 mg/kg/day, po measured after 5 weeks; assay type: organism-based; conditions: in vivo, 840 h, dose 100-500 mg/kg/day
[28] = Drug metabolism in mouse liver microsomes assessed as phoenicein formation measured after 5 mins in presence of NADPH by LC/MS/MS analysis; assay type: ADME, Microsome
[29] = Acute toxicity in female Kunming mouse assessed as effect on spleen 5 g/Kg, po measured after 5 weeks; assay type: organism-based; conditions: in vivo, 5000 mg/kg, 840 h
Mus musculus [30] = experiment: Antiinflammatory activity in DSS-induced male C57BL/6 mouse model assessed as inhibition of IL-22 level in colon at 50 to 200 microM/Kg; assay type: functional, organism-based; conditions: dose 50-200 µM/Kg
Mus musculus [31] = experiment: Antiinflammatory activity in DSS-induced male C57BL/6 mouse model of inflammatory bowel disease assessed as increase in colon length at 60 mg/kg/day, po via gavage measured upto 14 days relative to control; assay type: functional; conditions: time <= 14 day
Mus musculus [32] = experiment: Antiinflammatory activity in DSS-induced male C57BL/6 mouse model assessed as inhibition of TNF-alpha level in colon at 50 to 200 microM/Kg; assay type: functional, organism-based; conditions: dose 50-200 µM/Kg
Mus musculus [33] = species: Mus musculus; experiment: Antiinflammatory activity in DSS-induced male C57BL/6 mouse model of inflammatory bowel disease assessed as reduction in MYD88 level; assay type: functional, organism-based
Mus musculus [34] = species: Mus musculus; experiment: Antiinflammatory activity in DSS-induced male C57BL/6 mouse model of inflammatory bowel disease assessed as reduction in IRF5 level; assay type: functional, organism-based
Mus musculus [35] = experiment: Antiinflammatory activity in DSS-induced male C57BL/6 mouse model of inflammatory bowel disease assessed as recovery from body weight loss at 10 mg/kg/day, ip measured after 14 days relative to control; assay type: functional; conditions: time 14 day
Mus musculus [36] = experiment: Antiinflammatory activity in DSS-induced male C57BL/6 mouse model of inflammatory bowel disease assessed as inhibition of MPO expression at 50 to 200 microM/Kg, po by immunohistochemical analysis; assay type: functional, organism-based; conditions: dose 50-200 µM/Kg
Mus musculus [37] = species: Mus musculus; experiment: Antiinflammatory activity in DSS-induced male C57BL/6 mouse model of inflammatory bowel disease assessed as reduction in TLR8 level; assay type: functional, organism-based
Mus musculus [38] = species: Mus musculus; experiment: Antiinflammatory activity in DSS-induced male C57BL/6 mouse model of inflammatory bowel disease assessed as reduction in TLR7 level; assay type: functional, organism-based
Mus musculus [39] = experiment: Antiinflammatory activity in DSS-induced male C57BL/6 mouse model of inflammatory bowel disease assessed as reduction of severe diarrhea at 15 to 60 mg/kg/day, po via gavage measured upto 14 days; assay type: functional, organism-based; conditions: dose 15-60 mg/kg/day, time <= 14.0 day
Mus musculus [40] = experiment: Antiinflammatory activity in DSS-induced male C57BL/6 mouse model assessed as inhibition of IL-6 level in colon at 50 to 200 microM/Kg; assay type: functional, organism-based; conditions: dose 50-200 µM/Kg

CC(=O)OC[C@H]1O[C@@H](OC2=C(C)OC(=C(C)C)C2=O)[C@H](OC(C)=O)[C@@H](OC(C)=O)[C@@H]1OC(C)=O
Activity (Mus musculus [1]): Active | Activity [2]: Non-toxic | Activity [3]: Non-toxic | Activity (Mus musculus [4]): Active | Activity (Mus musculus [5]): Active | Activity [6]: Non-toxic | Activity [7]: Non-toxic | Activity [8]: Non-toxic | Activity (Mus musculus [9]): Active | Activity [10]: Non-toxic | Activity [11]: Non-toxic | Activity (Mus musculus [12]): Active | Activity [13]: Non-toxic | Activity (Mus musculus [14]): Active | LD50 at 840 h [15]: > 500 mg/kg | Activity [16]: Non-toxic | Activity (Mus musculus [17]): Active | Activity [18]: Non-toxic | Activity [19]: Non-toxic | Activity [20]: Non-toxic | Activity [21]: Non-toxic | Activity [22]: Non-toxic | Activity [23]: Non-toxic | Activity (Mus musculus [24]): Active | Activity [25]: Non-toxic | Activity [26]: Non-toxic | Activity [27]: Non-toxic | Drug metabolism [28]: metabolite_detected | Activity [29]: Non-toxic

CC(C)=C1OC(C)=C(O[C@@H]2O[C@H](CO)[C@@H](O)[C@H](O)[C@H]2O)C1=O
Activity (Mus musculus [30]): Active | Activity (Mus musculus [31]): 73.4% | Activity (Mus musculus [32]): Active | Activity (Mus musculus [33]): Active | Activity (Mus musculus [34]): Active | Activity (Mus musculus [35]): 37.5% | Activity (Mus musculus [36]): Active | Activity (Mus musculus [37]): Active | Activity (Mus musculus [38]): Active | Activity (Mus musculus [39]): Active | Activity (Mus musculus [40]): Active
